Source: patent publication US10925851B2 (Regents of the University of Minnesota, priority 2018, dated 2021)
Several values for one entry are separate records, joined by “and”; a condition that tells them apart may be missing. Equal entries are not always repeated. Where two headings read alike, the source gives them in different places.

Assays:
Neprilysin (NEP) = biological target: T1, Neprilysin (NEP) (Homo sapiens, UniProt P08473); test: Neprilysin inhibition assay (Mca-[…](Dpn) FRET substrate); format: biochemical; conditions: for IC50: dose response, 3x dilutions from 100 μM; for inhibition at 10 µM: inhibitor 10 μM, read-out: NEP @ 10 μM (percent inhibition)
T1 construct: purchased Enzo Life Sciences
T1 sequence (P08473 whole entry, species assumed): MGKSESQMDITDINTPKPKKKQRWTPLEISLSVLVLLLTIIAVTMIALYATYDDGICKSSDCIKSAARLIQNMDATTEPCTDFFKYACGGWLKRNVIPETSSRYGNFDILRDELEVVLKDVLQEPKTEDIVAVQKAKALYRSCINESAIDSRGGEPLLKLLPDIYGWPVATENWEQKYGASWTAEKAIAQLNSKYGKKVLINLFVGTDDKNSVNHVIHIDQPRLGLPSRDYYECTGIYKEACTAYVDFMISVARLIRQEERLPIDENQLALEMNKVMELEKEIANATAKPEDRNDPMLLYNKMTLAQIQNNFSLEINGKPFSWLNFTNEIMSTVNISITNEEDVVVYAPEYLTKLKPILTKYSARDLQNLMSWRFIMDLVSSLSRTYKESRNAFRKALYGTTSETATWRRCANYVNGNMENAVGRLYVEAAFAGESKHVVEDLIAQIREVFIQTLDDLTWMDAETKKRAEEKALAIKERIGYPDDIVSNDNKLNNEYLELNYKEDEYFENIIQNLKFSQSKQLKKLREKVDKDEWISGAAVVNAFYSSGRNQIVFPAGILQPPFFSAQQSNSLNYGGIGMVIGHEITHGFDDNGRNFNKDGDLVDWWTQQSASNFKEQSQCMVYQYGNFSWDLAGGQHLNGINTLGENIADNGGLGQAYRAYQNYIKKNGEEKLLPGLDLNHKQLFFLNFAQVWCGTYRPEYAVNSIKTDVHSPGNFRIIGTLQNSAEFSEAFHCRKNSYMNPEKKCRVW
Protocol: Single concentration studies at 10 μM: Neprilysin inhibition assays were performed as described previously. The substrate Mca-[…](Dpn) and endopeptidase NEP were purchased from Enzo Life Sciences. […] Plate was mixed with a plate shaker at 1500 rpm for 30 seconds. The reaction was started with the addition of 6 μM of the FRET substrate and mixed for another 30 seconds at 1500 rpm. Mca fluorescence is quenched by Dpn until cleavage at Phe by NEP. The accumulation of the Mca was measured by exciting at 320 nm and reading the fluorescence at 405 nm on a Molecular Devices M5e plate reader for 40 minutes at room temperature. Percent inhibition is calculated in GraphPad Prism software using slopes in the linear range for each inhibitor at 10 μM.
Dose-Response Studies for NEP: Neprilysin inhibition assays were performed as described previously. The substrate Mca-[…](Dpn) and endopeptidase NEP were purchased from Enzo Life Sciences. Briefly, 0.5 nM NEP was incubated with 0.5 μL inhibitor. Compounds were tested at 3× dilutions from 100 μM final concentration in 50 mM HEPES pH 6.5 in 50 μL total volume in a black 384-well plate. Plate was mixed with a plate shaker at 1500 rpm for 30 seconds. The reaction was started with the addition of 6 μM of the FRET substrate and mixed for another 30 seconds at 1500 rpm. Mca fluorescence is quenched by Dpn until cleavage at Phe by NEP. The accumulation of the Mca was measured by exciting at 320 nm and reading the fluorescence at 405 nm on a Molecular Devices M5e plate reader for 40 minutes at room temperature. Steady state velocities were used to determine IC50 values by fitting the velocities vs. inhibitor concentration to the sigmoidal concentration-response curve (variable slope) using GraphPad Prism.

Aminopeptidase N (APN) = biological target: T2, Aminopeptidase N (APN) (Homo sapiens, UniProt P15144); test: Aminopeptidase N enzyme assay (Ala-AMC substrate, fluorescence); format: biochemical; conditions: for inhibition at 10 µM: inhibitor 10 μM, read-out: APN @ 10 μM (percent inhibition); for IC50: dose response, 3x dilutions from 100 μM
T2 construct: purchased R&D Systems
T2 sequence (P15144 whole entry): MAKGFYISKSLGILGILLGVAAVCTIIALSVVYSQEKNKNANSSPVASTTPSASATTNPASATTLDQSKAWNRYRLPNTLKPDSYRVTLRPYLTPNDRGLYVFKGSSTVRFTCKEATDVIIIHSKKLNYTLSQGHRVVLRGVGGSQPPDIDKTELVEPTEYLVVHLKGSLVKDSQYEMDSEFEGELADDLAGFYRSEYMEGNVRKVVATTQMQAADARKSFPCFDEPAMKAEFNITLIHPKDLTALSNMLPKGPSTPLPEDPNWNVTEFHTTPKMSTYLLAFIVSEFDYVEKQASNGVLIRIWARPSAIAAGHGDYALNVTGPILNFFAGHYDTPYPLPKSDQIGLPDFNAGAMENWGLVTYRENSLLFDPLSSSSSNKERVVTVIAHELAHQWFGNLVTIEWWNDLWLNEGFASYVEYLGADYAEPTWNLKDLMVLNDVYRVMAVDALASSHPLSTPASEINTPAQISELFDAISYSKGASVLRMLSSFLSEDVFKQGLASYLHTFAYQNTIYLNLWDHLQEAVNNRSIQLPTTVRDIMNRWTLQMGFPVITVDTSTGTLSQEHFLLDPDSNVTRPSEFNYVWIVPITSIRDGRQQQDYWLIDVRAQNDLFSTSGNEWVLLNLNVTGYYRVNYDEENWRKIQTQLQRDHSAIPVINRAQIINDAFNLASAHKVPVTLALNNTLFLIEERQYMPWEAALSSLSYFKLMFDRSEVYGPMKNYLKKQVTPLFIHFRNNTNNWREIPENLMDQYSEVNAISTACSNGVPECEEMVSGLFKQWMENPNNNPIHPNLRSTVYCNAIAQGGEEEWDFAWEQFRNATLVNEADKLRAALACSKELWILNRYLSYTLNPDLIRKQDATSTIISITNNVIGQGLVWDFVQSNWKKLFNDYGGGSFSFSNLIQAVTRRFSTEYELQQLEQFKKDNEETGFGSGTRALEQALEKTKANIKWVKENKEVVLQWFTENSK
Protocol: Single concentration studies at 10 μM: Aminopeptidase N assays were performed as described previously. Aminopeptidase N was purchased from R&D Systems. Amino-4-methylcoumarin (Ala-AMC) was purchased from Bachem. Briefly, 0.1 μg/μL APN was incubated with 1 μL of 1 mM inhibitor in 50 mM Tris buffer, pH 7.5, in 100 μL volume in a black 384-well plate in duplicate. The reaction was started with the addition of Ala-AMC substrate at a final concentration of 100 μM. The cleavage accumulation AMC was measured by exciting at 380 nm and reading the fluorescence at 460 nm on a Molecular Devices SpectraMax i3 plate reader for 20 min at room temperature. Percent inhibition is calculated in GraphPad Prism software using slopes in the linear range for each inhibitor at 10 μM.
Dose-Response Studies for APN: Aminopeptidase N enzyme assays were performed as described previously.^26 Briefly, 0.1 μg/μL APN was incubated with 1 μL inhibitor in 50 mM Tris buffer, pH 7.5, in 50 μL volume in a black 384-well plate in duplicate. Compounds were tested at 3× dilutions from 100 μM final concentration. The reaction was started with the addition of Ala-AMC substrate at a final concentration of 100 μM. The accumulation of AMC was measured by exciting at 380 nm and reading the fluorescence at 460 nm on a Molecular Devices SpectraMax i3 plate reader for 30 min at room temperature. Steady state velocities were used to determine IC50 values by fitting the velocities vs. inhibitor concentration to the sigmoidal concentration-response curve (variable slope) using GraphPad Prism.

mice [1] = test: Co-administration of opioid antagonist naloxone in hot-plate and tail-flick assays; format: in vivo, mouse; conditions: naloxone s.c. 5 mg/Kg or i.c.v. 5 μg per mouse
Protocol: Naloxone dissolved in saline was either administered subcutaneously (s.c.; dosage: 5 mg/Kg) via an injection to the interscapular skin, or it was given intracerebroventricularly (5 μg per mouse).
Naloxone is a broad-spectrum opioid receptor antagonist. It is known to interact with, mu- (μ-), delta- (δ-), and kappa- (κ-) opioid receptors, with highest affinity for the μ receptors. […] Naloxone dissolved in saline was delivered subcutaneously (s.c.) via an injection to the interscapular skin.
5 mg/Kg naloxone dissolved in saline was administered subcutaneously (s.c.) via an injection to the interscapular skin. Analgesic efficacy for various time-points was determined in hot-plate and tail-flick assays as detailed above.

mice [2] = test: Combination therapy with morphine, isobolographic analysis in tail-flick assay; conditions: for Dose Reduction Index (DRI) Morphine: in combination with tosedostat, 50% efficacy; for ED50: Mus musculus, sc

## CC(C)C[C@H](NC(=O)[C@@H](O)[C@H](N)Cc1ccccc1)C(=O)O [Bestatin]
Neprilysin (NEP)
  activity against NEP (in words): no activity against NEP
  IC50: > 100 µM
  inhibition at 10 µM: 0%
Aminopeptidase N (APN)
  activity against APN (in words): inhibiting only APN
  inhibition at 10 µM: 77.6%

## C=CCN1CC[C@]23c4c5ccc(O)c4O[C@H]2C(=O)CC[C@@]3(O)[C@H]1C5 [Naloxone]
Mice [1]
  effect on latency, naloxone only groups: no effect on latency

## CNC(=O)[C@H](Cc1ccccc1)NC(=O)[C@H](CC(C)C)[C@H](CSc1cccs1)C(=O)NO [Batimastat]
Neprilysin (NEP)
  activity against NEP (in words): inhibit both APN and NEP
  IC50: 4.48 µM
  inhibition at 10 µM: 60%
Aminopeptidase N (APN)
  activity against APN (in words): inhibit both APN and NEP
  IC50: 210 nM and 212 nM

## O=C(O)CNC(=O)C(CS)Cc1ccccc1 (centres unmarked) [Thiorphan]
Neprilysin (NEP)
  activity against NEP (in words): inhibited only NEP
  inhibition at 10 µM: 90%
Aminopeptidase N (APN)
  activity against APN (in words): no activity against APN
  IC50: > 100000 nM
  inhibition at 10 µM: 0%

## CN1CC[C@]23c4c5ccc(O)c4O[C@H]2[C@@H](O)C=C[C@H]3[C@H]1C5 [Morphine]
Mice [2]; 15 min
  Dose Reduction Index (DRI) Morphine: 4.47
Mice [2]; 30 min
  Dose Reduction Index (DRI) Morphine: 1.96
Mice [2]; 45 min
  Dose Reduction Index (DRI) Morphine: 2.43
Mice [2]; 60 min
  Dose Reduction Index (DRI) Morphine: 17.0
Mice [2]; 60 min, listed as morphine
  Dose Reduction Index (DRI) Morphine: 17
Mice [2]; 0.25 h, read-out: Morphine ED50 (±SEM)
  ED50: 6.29 ± 12.7 mg/kg
Mice [2]; 0.5 h, read-out: Morphine ED50 (±SEM)
  ED50: 3.52 ± 7.2 mg/kg
Mice [2]; 0.75 h, read-out: Morphine ED50 (±SEM)
  ED50: 3.87 ± 2.04 mg/kg
Mice [2]; 1 h, read-out: ED50, given alone
  ED50: 2.5 to 3 mg/kg
Mice [2]; 1 h, read-out: Morphine ED50 (±SEM)
  ED50: 30 ± 204 mg/kg
